Where a SMILES comes first, the peptide text is derived from it.
Legend:
pro-Lyb-2 cells [1] = settings: from the referenced articles; cited from earlier work
pro-Lyb-2 cells [2] = assay: Induction assay: Lyb-2 expression (B-cell differentiation); format: cell-based, mouse; settings: 3 hr incubation; compared with natural bursopoietin at the same concentration
Procedure: To determine the activity and immunological characteristics of one of the subject peptide, certain related peptides prepared in the above Examples, and natural bursopoietin, an induction assay was carried out substantially as described in Audhya, et al., Proc. Natl. Acad. Sci. USA, 81,2847 (1984).
In brief, prothymocytes (Thy-1^-) and pro-Lyb-2 cells were coenriched from B6-Lyb-2.1 congenic mouse spleen by bovine serum albumin density gradient centrifugation (Path-O-Cyte 5, lot 35, 1 ml of 35/29/26/23/18/12%). The 26/23 and 23/18 interface layers were combined, and Thy-1^+ and Lyb-2^+ cells were removed by reaction with monoclonal Thy-1.2 and Lyb-2.1 antibodies prepared according to Scheid, et al., Immunogenetics, 9, 423-433 (1979), and adherence to plates coated with affinity-purified rabbit anti-mouse F(ab)2. The washed nonadherent cells were used for both assays. This starting population contained 30-40% prothymocytes and 30-40% pro-Lyb-2 cells (known to represent separate committed precursor populations) as described in Scheid, et al., J. Exp. Med., 147, 1727-1743 (1978).
Cells (5×10^6 cells per 0.5 ml of RPMI 1640 medium) were incubated in 5-ml plastic tubes with equal volumes of test compound in serial dilution in RPMI 1640 medium in a humidified 5% CO2 atmosphere for 3 hr. […]

ubiquitin
induction of differentiation of T-cells and B-cells (pro-Lyb-2 cells [1]): nonselectively induce the differentiation of both T-cells and B-cells

NCCCC[C@H](N)C(=O)N[C@@H](Cc1c[nH]cn1)C(=O)NCC(N)=O [H-LYS-HIS-GLY-NH2, L-Lysyl-L-Histidyl-Glycineamide] (H-Lys-His-Gly-NH2)
activity in differentiation induction assay (FIG. 1) (pro-Lyb-2 cells [2]): possessed the activity of the natural isolate
